Reference: article PMC12610573, “New Chlormequat-Based Ionic Liquids as Plant Resistance Inducers” (Molecules, 2025)

How the values were obtained:
[1] = test system: radish (Raphanus sativus) sprouts; test: Phytotoxicity test on radish sprouts; assay type: in vivo; conditions: for Reduction in Sprout Mass: compared with untreated control; for Mass of 25 Sprouts: radish, 5 days, UTC 3.09 g
Experimental: Twenty five seeds of radish (Raphanus sativus) were placed on a filter tissue in a Petri dish. […] Then, sprouts were weighted. All variants of treatment were tested together, with 3 replications (plates) in each of 2 cycles performed. Results were subjected to statistical analysis as described in Section 4.8.
(§1) Statistical significance of the effect of the treatments of plants with tested compounds on the phytotoxicity and SAR induction was assessed with the ANOVA test performed using the Statistica program StatSoft with software version 9.1 (StatSoft Sp. z o.o., Kraków, Poland). The statistical assumptions of normality and homogeneity of variances were verified prior to conducting the ANOVA tests. Differences between the means were estimated with Tukey’s HSD test at the significance level of p = 0.05.

[2] = Solubility tests in representative solvents (Vogel protocol); conditions: 25 °C; for solubility: thermodynamic from solid
Experimental: The solubilities of the prepared ILs in ten representative solvents were determined according to the protocols from Vogel’s Textbook of Practical Organic Chemistry. The solvents chosen for the study were arranged in order of descending value of their Snyder polarity index: water—9.0, methanol—6.6, acetone—5.1, isopropanol—4.3, toluene—2.3, and hexane—0.0.

[3] = Thermogravimetric analysis (TGA), thermal stability; conditions: TGA under nitrogen, 10 °C/min; for Thermal Stability T5%onset: 5% weight loss onset; for Thermal Stability Tonset: decomposition onset
Experimental: TGA was performed on a TGA Q50 (Texas Instruments, Dallas, TX, USA) under nitrogen. Samples (5–10 mg) were heated from 25 °C to 500 °C at 10 °C/min with an isothermal step at 85 °C for 10 min. T5%onset and Tonset values were recorded.

[4] = test system: Tobamovirus tabaci (tobacco mosaic virus, TMV) on Nicotiana tabacum cv. Xanthi; test: SAR induction assay: necrotic area after TMV inoculation of sprayed tobacco; assay type: in vivo; conditions: for SAR Induction (percentage of necrotic area on leaves): TMV inoculation after 7 days, read 7 days later, UTC 34.54; for Reduction in Necrotic Area: compared with untreated control plants; for Percentage of necrotic spot coverage (leaf shown in supplementary figure): single leaf image
Experimental: Plants of Nicotiana tabacum cv. Xanthi were grown under greenhouse conditions at 25 °C and 50% relative humidity, under natural daylight during the May–August growing season, with a natural photoperiod. The plants were sprayed with solutions containing the tested compounds.
In all experiments, the TMV SL-1 isolate Tobamovirus (TMV) was used. To obtain a viral inoculum, Nicotiana tabacum cv. Samsun plants were sap-inoculated with previously virus-infected plant material. After the appearance of disease symptoms on the infected plants (leaf mosaic), the virus was isolated by sucrose density gradient centrifugation with 0.01 M Tris-HCl, pH 7.0, to prepare the infectious inoculum. The concentration of virus in the obtained preparation was determined spectrophotometrically. The samples of TMV were stored at −20 °C until use.
The tested active substances at a given concentration were sprayed on tobacco plants with three fully developed leaves. The volume of working solution used was equal to 10 mL per plant. The compounds were dissolved in a water/propylene glycol solution (95/5, v/v). The plants of the untreated control variant were sprayed with a water/propylene glycol solution (95/5, v/v) that was used for the preparation of solutions of the tested compounds. After seven days, the plants were mechanically inoculated using purified viral preparations (0.01 ng/mL as described in [34]).
The plants were inoculated with the TMV inoculum at a concentration of 3.8 × 10^−4 ng per leaf. For each variant of treatment, 3 plants were sprayed, and 3 leaves of each plant were analyzed. The entire experiment was performed in 2 replicates. Necrotic areas on the leaves were determined using ImageJ software.
The surface of a leaf or an area with necrotic spots is represented by a set of pixels in the image, which are counted by the program. Reduction in necrotic area (ISAR) is expressed by the following formula:(1) ISAR=100−(At/Ac∗100) where At is the ratio of the area of necrotic spots caused by viral infection that appeared on the leaf treated with the test substance to the whole area of the leaf; Ac is the ratio of the area of the necrotic spots caused by viral infection that appeared on the leaf of the control plant to the whole area of the leaf.
as §1

[5] = topical, read-out: Reduction in Necrotic Area

Structure (SMILES) | Reduction in Sprout Mass ([1]; 125 mg/L) [%] | Mass of 25 Sprouts ([1]; 125 mg/L) | Reduction in Sprout Mass ([1]; 250 mg/L) [%] | Mass of 25 Sprouts ([1]; 250 mg/L) | Solubility in Hexane ([2]; Snyder polarity index 0.0) | Solubility in Toluene ([2]; Snyder polarity index 2.3) | Solubility in Isopropanol ([2]; Snyder polarity index 4.3) | Solubility in Acetone ([2]; Snyder polarity index 5.1) | Solubility in Methanol ([2]; Snyder polarity index 6.6) | Solubility in Water ([2]; Snyder polarity index 9.0) | Thermal Stability T5%onset [3] [°C] | Thermal Stability Tonset [3] [°C] | SAR Induction (percentage of necrotic area on leaves) ([4]; 125 mg/L spray) | Reduction in Necrotic Area ([4]; 125 mg/L) [%] | Percentage of necrotic spot coverage (leaf shown in supplementary figure) ([4]; 125 mg/L) [%] | SAR Induction (percentage of necrotic area on leaves) ([4]; 250 mg/L spray) | Reduction in Necrotic Area ([4]; 250 mg/L) [%] | Percentage of necrotic spot coverage (leaf shown in supplementary figure) ([4]; 250 mg/L) [%] | further results
C[N+](C)(C)CCCl.O=C([O-])c1cc(Cl)ccc1O [[CC][5-ClSal]] | 19.15 | 2.50 efg D | 30.15 | 2.16 fgh C | − (insoluble) | − (insoluble) | +/− (of limited solubility) | − (insoluble) | + (soluble) | +/− (of limited solubility) | 217.1 | 138.5 | 3.15 a AB % | 90.9 | 2.28 | 1.58 a A % | 95.4 | 1.15 | Difference in percentage reduction in leaf necrotic area between 125 mg/L and 250 mg/L ([4]; in vivo): approximately 4.5 percentage points
C[N+](C)(C)CCCl.O=C([O-])c1ccc(Cl)cc1O [[CC][4-ClSal]] | – | 2.84 hi D g | 19.63 | 2.48 ij C g | − (insoluble) | − (insoluble) | +/− (of limited solubility) | − (insoluble) | + (soluble) | +/− (of limited solubility) | 205.3 | 137.2 | 12.47 bc B % | 63.9 | – | 7.85 bcde A % | 77.3 | – | –
C[N+](C)(C)CCCl.O=C([O-])c1cccc(Cl)c1O [[CC][3-ClSal]] | 15.97 | 2.60 fgh D | 36.68 | 1.96 ef C g | − (insoluble) | − (insoluble) | +/− (of limited solubility) | − (insoluble) | + (soluble) | +/− (of limited solubility) | 196.2 | 136.1 | 2.52 a AB % | 92.7 | 0.79 | 1.39 a A % | 96.0 | 0.27 | –
C[N+](C)(C)CCCl.O=C([O-])c1ccccc1O [[CC][Sal], chlormequat salicylate] | 8.79 | 2.82 hi C g | 26.91 | 2.26 hi B g | – | – | – | – | – | – | 186.1 | 93.3 | 19.99 de B % | – | – | 12.39 ef A % | – | – | solubility ([2]; organic solvent or mixture, Solubility in Acetone, Snyder polarity index 5.1): < 33.3 mg/mL; solubility ([2]; organic solvent or mixture, Solubility in Hexane, Snyder polarity index 0.0): < 33.3 mg/mL; solubility ([2]; organic solvent or mixture, Solubility in Isopropanol, Snyder polarity index 4.3): 33.3 to 100 mg/mL; solubility ([2]; organic solvent or mixture, Solubility in Methanol, Snyder polarity index 6.6): > 100 mg/mL; solubility ([2]; organic solvent or mixture, Solubility in Toluene, Snyder polarity index 2.3): < 33.3 mg/mL; solubility ([2]; water, Solubility (water)): > 100 mg/mL; solubility ([2]; water, Solubility in Water, Snyder polarity index 9.0): > 100 mg/mL; pest or weed control at 125 µg/mL [4, 5]: 42.1%; pest or weed control at 250 µg/mL [4, 5]: 64.1%
C[N+](C)(C)CCCl.O=C([O-])c1cc(Cl)cc(Cl)c1O [[CC][3,5-ClSal]] | 27.51 | 2.24 cde C g | 37.38 | 1.94 ef B g | − (insoluble) | − (insoluble) | +/− (of limited solubility) | − (insoluble) | + (soluble) | +/− (of limited solubility) | 208.3 | – | 7.79 ab A % | 77.4 | – | 4.93 abc A % | 85.7 | – | –
C[N+](C)(C)CCCl.O=C([O-])c1cc(Cl)nc(Cl)c1 [[CC][Ina]] | 15.05 | 2.63 fgh D | 28.21 | 2.22 gh C | − (insoluble) | − (insoluble) | +/− (of limited solubility) | − (insoluble) | + (soluble) | + (soluble) | 177.2 | – | 14.80 cd AB % | 57.2 | – | 12.52 ef A % | 63.8 | – | –
